The subject of assay [1] is mGluRs 1, 2, 3, 4, 7 and 8. The experiment in a line: Selectivity versus other mGluRs.
Assay [2] has as its target MPEP allosteric binding site on mGluR5 (Rattus norvegicus, UniProt P31424). The experiment in a line: Displacement of [3H]3-methoxy-5-.

The structures appear in SMILES notation.

MPEP allosteric binding site on mGluR5, sequence (P31424 21-1203): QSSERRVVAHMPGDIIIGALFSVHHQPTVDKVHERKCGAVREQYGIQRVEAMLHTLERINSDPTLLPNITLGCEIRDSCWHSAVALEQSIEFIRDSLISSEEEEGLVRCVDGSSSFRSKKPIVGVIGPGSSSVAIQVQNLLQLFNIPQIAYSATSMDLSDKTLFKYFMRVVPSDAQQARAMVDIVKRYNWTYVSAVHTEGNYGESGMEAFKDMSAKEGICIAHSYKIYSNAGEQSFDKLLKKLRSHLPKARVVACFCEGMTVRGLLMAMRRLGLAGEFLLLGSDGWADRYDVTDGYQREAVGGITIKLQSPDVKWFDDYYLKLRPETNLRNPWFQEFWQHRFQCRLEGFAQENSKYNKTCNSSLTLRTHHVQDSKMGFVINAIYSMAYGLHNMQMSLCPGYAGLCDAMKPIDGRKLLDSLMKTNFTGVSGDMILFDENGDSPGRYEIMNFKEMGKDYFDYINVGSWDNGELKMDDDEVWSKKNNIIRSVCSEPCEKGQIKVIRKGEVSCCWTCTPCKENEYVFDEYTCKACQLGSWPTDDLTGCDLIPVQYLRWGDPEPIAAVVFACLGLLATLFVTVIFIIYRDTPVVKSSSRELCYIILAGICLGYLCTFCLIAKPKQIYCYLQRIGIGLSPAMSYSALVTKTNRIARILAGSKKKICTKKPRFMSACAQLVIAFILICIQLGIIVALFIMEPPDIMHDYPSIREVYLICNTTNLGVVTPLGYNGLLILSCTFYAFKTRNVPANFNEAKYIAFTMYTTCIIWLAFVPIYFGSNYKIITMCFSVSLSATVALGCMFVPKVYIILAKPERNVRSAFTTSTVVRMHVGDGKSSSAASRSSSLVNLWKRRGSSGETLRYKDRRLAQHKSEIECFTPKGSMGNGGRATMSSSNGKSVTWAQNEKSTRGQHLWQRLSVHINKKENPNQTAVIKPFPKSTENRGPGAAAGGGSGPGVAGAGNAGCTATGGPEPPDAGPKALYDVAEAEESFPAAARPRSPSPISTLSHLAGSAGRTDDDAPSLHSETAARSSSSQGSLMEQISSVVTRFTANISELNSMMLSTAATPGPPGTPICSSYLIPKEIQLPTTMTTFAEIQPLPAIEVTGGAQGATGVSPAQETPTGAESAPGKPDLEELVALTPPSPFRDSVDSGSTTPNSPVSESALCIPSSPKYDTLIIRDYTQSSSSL

Take `COc1ccccc1C(=O)Nc1cccc(NC(=O)c2cccc(Cl)c2)c1` [compound 8]: in assay [1], the “selectivity versus mGluRs 1, 2, 3, 4, 7 and 8” value is on record as “selective”. In addition, the Ki in assay [2] worked out at 1100 nM.

In the case of `O=C(Nc1ccccc1O)c1cccc(N2C(=O)c3ccccc3C2=O)c1` [compound 9, 3-(phthalimidyl)-N-(2-hydroxyphenyl)benzamide], the “selectivity versus mGluRs 1, 2, 3, 4, 7 and 8” value in assay [1] is “selective”. In addition, the affinity in assay [2], expressed as Ki, was 319 nM.

(Values after PMC3177597 (Bioorganic & medicinal chemistry letters, 2009).)
